Tested on: C57 B16J mice
Experiment: Tail suspension test (animal model of depression)
Format: in vivo
Details: CBG dose greater than or equal to 40 mg/kg ip, tested 30 minutes after injection for six minutes
Experimental: A substantially pure extract of cannabigerol, purified from a cannabis plant extract, was tested for its ability to modify the behaviour of mice during an open field test and a tail suspension test (Steru et al., 1985, Psychopharmacology (Berl.) 85(3), 367-370). The CBG extract was compared to a known antidepressant imipramine.
The experiment used groups of 7-8 C57 B16J mice and these were tested with doses of 0, 5, 10, 20, 40, 60 and 80 mg/kg ip of CBG extract. The dose of imipramine that was used was the standard dose that is known to produce an anti-depressant effect of 30 mg/kg ip. One group of animals were administered a vehicle control.
The animals were subjected to a tail suspension test whereby a sound-attenuated chamber with a titanium bar mounted 15 cm from the floor was used. An opto-electronic sensor was mounted in a white plastic column and positioned from the mounting bar. An infra-red light transmitted from an LED onto the animal. If the animal moved, the amount of light collected by the phototransistor would increase or decrease depending on the size of the movement. […]
The mouse was suspended from a bar by the tip of its tail using adhesive tape so that the tip of their nose was 2 cm from the floor of the chamber. The total number of movements and total amount of time spent immobile were recorded.

With `CCCCCc1cc(O)c(C/C=C(\C)CCC=C(C)C)c(O)c1` [CBG, cannabigerol] the “amount of struggling in the tail suspension test compared with vehicle control” value was “significantly increased”.
